According to ChEMBL document CHEMBL1149997, “Anti-HIV activity of quassinoids” (Bioorg Med Chem Lett, 1996):

Legend:
[1] = test system: Human immunodeficiency virus 1; assay: Inhibition of HIV-1 replication in H9 lymphocytic cells.; format: functional, organism-based; details: Human immunodeficiency virus 1, H9
H9 [2] = assay: Cytotoxicity against H9 lymphocytic cells.; format: functional, cell-based; details: Homo sapiens
[3] = Therapeutic index expressed as the ratio of IC50 to EC50.; details: read-out: Therapeutic index
H9 [4] = assay: Compound was tested for cytotoxicity against H9 lymphocytic cells; Toxic at all concentrations; format: functional, cell-based, Homo sapiens
H9 [5] = assay: Compound was tested for inhibitory activity against HIV replication in H9 lymphocytic cells; Toxic at all concentrations; format: functional, cell-based, Homo sapiens
[6] = Therapeutic index expressed as the ratio of IC50 to EC50; No effect
H9 [7] = assay: Compound was tested for inhibitory activity against HIV replication in H9 lymphocytic cells; No effect; format: functional, cell-based, Homo sapiens

| EC50 [1] [µM] | EC50 (H9 [7]) | Compound | IC50 (H9 [2]) [µM] | selectivity ratio [3] | IC50 (H9 [4]) | EC50 (H9 [5]) | Therapeutic index [6] |
| --- | --- | --- | --- | --- | --- | --- | --- |
| 246 | – | CC(=O)O[C@@H]1C(=O)[C@H](C)[C@@H]2CC(=O)O[C@@H]3C[C@H]4[C@H](C)CC(O)C(=O)[C@]4(C)[C@@H]1[C@@]32C (some centres not stated) | > 246 | > 1 | – | – | – |
| 10.6 | – | CC1=CC(=O)[C@@H](O)[C@@]2(C)C1C[C@H]1OC(=O)C[C@H]3[C@H](C)[C@H](O)C(=O)[C@@H]2[C@@]13CO (some centres not stated) | > 264 | > 25 | – | – | – |
| – | – | C=C1[C@@H](O)[C@]2(O)OC[C@@]34[C@H]1[C@@H](OC(=O)C(C)(O)CC)C(=O)O[C@@H]3C[C@H]1C(C)=CC(=O)[C@@H](O)[C@]1(C)[C@@H]24 (some centres not stated) | – | – | Toxic at all concentrations | Toxic at all concentrations | – |
| 30 | – | COC(=O)C(C)[C@@H]1CC(=O)O[C@@H]2C[C@H]3C(C)=CC(=O)[C@@H](O)[C@]3(C)[C@H]3C(=O)OC[C@]321 (some centres not stated) [AILANTINOL A] | > 246 | > 8.2 | – | – | – |
| 179 | – | C[C@@H]1C[C@H](O)C(=O)[C@]2(C)[C@H]3[C@H](O)C(=O)[C@H](C)[C@@H]4CC(=O)O[C@H](C[C@@H]12)[C@]34C [AMAROLIDE] | > 275 | > 1.5 | – | – | – |
| 29 | – | COC(=O)[C@@]12OC[C@]34[C@H]([C@@H](O)[C@@H]1O)[C@@]1(C)C=C(O[C@@H]5O[C@H](CO)[C@@H](O)[C@H](O)[C@H]5O)C(=O)[C@@H](C)[C@@H]1C[C@H]3OC(=O)[C@H](OC(=O)C=C(C)C)[C@@H]24 [BRUCEOSIDE A] | 29 | 1 | – | – | – |
| – | Not Active | COC(=O)[C@@]12OC[C@]34[C@H](OC(=O)C[C@@H]13)[C@H](OC(=O)C=C(C)C)[C@H]1C(C)=C(O[C@@H]3O[C@H](CO)[C@@H](O)[C@H](O)[C@H]3O)C(=O)C[C@]1(C)[C@H]4[C@@H](O)[C@@H]2O [BRUCEOSIDE C] | 44 | – | – | – | Not Active |
| – | Not Active | CC(C)=CC(=O)O[C@H]1C(=O)O[C@@H]2C[C@H]3[C@H](C)C(=O)C(O[C@@H]4O[C@H](CO)[C@@H](O)[C@H](O)[C@H]4O)=C[C@]3(C)[C@H]3[C@@H](O)[C@H](O)[C@]4(C(=O)O)OC[C@]32[C@@H]14 [BRUCEOSIDE D] | 52 | – | – | – | Not Active |
| 74 | – | CC(C)CC(=O)O[C@H]1C(=O)O[C@@H]2C[C@H]3[C@H](C)C(=O)C(O[C@@H]4O[C@H](CO)[C@@H](O)[C@H](O)[C@H]4O)=C[C@]3(C)[C@H]3[C@@H](O)[C@H](O)[C@]4(C(=O)O)OC[C@]32[C@@H]14 [BRUCEOSIDE E] | 59 | 0.8 | – | – | – |
| 46 | – | COC(=O)[C@]12OC[C@]34[C@H]([C@@H](O)[C@@H]1O)[C@@]1(C)C(=O)C(O[C@@H]5O[C@H](CO)[C@@H](O)[C@H](O)[C@H]5O)=C[C@@H](C)[C@@H]1C[C@H]3OC(=O)[C@H](OC(=O)/C=C(\C)C(C)(C)OC(C)=O)[C@@H]24 [Bruceantinoside C] | 26 | 0.6 | – | – | – |
| – | Not Active | COC(=O)[C@]12OC[C@]34[C@H]([C@@H](O)[C@@H]1O)[C@@]1(C)C=C(O[C@@H]5O[C@H](CO)[C@@H](O)[C@H](O)[C@H]5O)C(=O)[C@@H](C)[C@@H]1C[C@H]3OC(=O)[C@H](OC(=O)/C=C(\C)C(C)C)[C@@H]24 [Bruceantinoside-A] | 4 | – | – | – | Not Active |
| 3 | – | COC(=O)[C@]12OC[C@]34[C@H]([C@@H](O)[C@@H]1O)[C@@]1(C)CC(=O)C(O[C@@H]5O[C@H](CO)[C@@H](O)[C@H](O)[C@H]5O)=C(C)[C@@H]1C[C@H]3OC(=O)[C@H](OC(=O)C=C(C)C)[C@@H]24 [Bruceoside-B] | 3 | 1 | – | – | – |
| 112 | – | CC(=O)OC(C)(C)/C(C)=C/C(=O)O[C@H]1C(=O)O[C@@H]2C[C@H]3[C@H](C)C(=O)C(O[C@@H]4O[C@H](CO)[C@@H](O)[C@H](O)[C@H]4O)=C[C@]3(C)[C@H]3[C@@H](O)[C@H](O)[C@@]4(C(=O)O)OC[C@]32[C@@H]14 [Bruceoside-F] | > 132 | > 1.2 | – | – | – |
| 43 | – | CC1=CC(=O)[C@@H](O)[C@]2(C)[C@H]3[C@@]4(O)C(=O)OC[C@@]35[C@@H](C[C@@H]12)OC(=O)C[C@H]5[C@H]4C [SHINJUDILACTONE] | > 266 | > 6.2 | – | – | – |
| 5 | – | C=C1[C@H](O)[C@]2(O)OC[C@]34[C@H]2[C@@]2(C)[C@H](O)[C@@H](O)C=C(C)[C@@H]2C[C@H]3OC(=O)C[C@@H]14 [SHINJULACTONE A] | 5 | 1 | – | – | – |
| – | Not Active | COC(=O)[C@]12OC[C@]34[C@H]([C@@H](O)[C@@H]1O)[C@@]1(C)C=C(O[C@@H]5O[C@H](CO)[C@@H](O)[C@H](O)[C@H]5O)C(=O)[C@@H](C)[C@@H]1C[C@H]3OC(=O)[C@H](OC(=O)/C=C(\C)C(C)(C)O)[C@@H]24 [YADANZIOSIDE C] | 55 | – | – | – | Not Active |
| 109 | – | COC(=O)[C@]12OC[C@]34[C@H]([C@@H](O)[C@@H]1O)[C@@]1(C)C=C(O[C@@H]5O[C@H](CO)[C@@H](O)[C@H](O)[C@H]5O)C(=O)[C@@H](C)[C@@H]1C[C@H]3OC(=O)[C@H](OC(C)=O)[C@@H]24 [YADANZIOSIDE F] | 156 | 1.4 | – | – | – |
| – | Not Active | COC(=O)[C@@]12OC[C@]34[C@H]([C@@H](O)[C@@H]1O)[C@@]1(C)C=C(O[C@@H]5O[C@H](CO)[C@@H](O)[C@H](O)[C@H]5O)C(=O)[C@@H](C)[C@@H]1C[C@H]3OC(=O)[C@H](OC(=O)c1ccccc1)[C@@H]24 [YADANZIOSIDE-M] | 7 | – | – | – | Not Active |
| 110 | – | COC(=O)[C@]12OC[C@]34[C@H]([C@@H](O)[C@@H]1O)[C@@]1(C)C=C(O[C@@H]5O[C@H](CO)[C@@H](O)[C@H](O)[C@H]5O)C(=O)[C@@H](C)[C@@H]1C[C@H]3OC(=O)[C@H](OC(=O)CC(C)C)[C@@H]24 [Yadanzioside A] | 146 | 1.3 | – | – | – |
| 5 | – | COC(=O)[C@]12OC[C@]34[C@H]([C@@H](O)[C@@H]1O)[C@@]1(C)CC(=O)C(O[C@@H]5O[C@H](CO)[C@@H](O)[C@H](O)[C@H]5O)=C(C)[C@@H]1C[C@H]3OC(=O)[C@H](OC(=O)CC(C)C)[C@@H]24 [Yadanzioside B] | 4 | 0.8 | – | – | – |
| – | Not Active | COC(=O)[C@]12OC[C@]34[C@H]([C@@H](O)[C@@H]1O)[C@@]1(C)[C@H](O)[C@H](O[C@@H]5O[C@H](CO)[C@@H](O)[C@H](O)[C@H]5O)C=C(C)[C@@H]1C[C@H]3OC(=O)[C@H](OC(=O)C=C(C)C)[C@@H]24 [Yadanzioside E] | 29 | – | – | – | Not Active |
| 23 | – | COC(=O)[C@]12OC[C@]34[C@H]([C@@H](O)[C@@H]1O)[C@@]1(C)C=C(O[C@@H]5O[C@H](CO)[C@@H](O)[C@H](O)[C@H]5O)C(=O)[C@@H](C)[C@@H]1C[C@H]3OC(=O)[C@H](OC(=O)/C=C(\C)C(C)(C)OC(C)=O)[C@@H]24 [Yadanzioside G] | 37 | 1.6 | – | – | – |
| 5 | – | COC(=O)[C@]12OC[C@]34[C@H]([C@@H](O)[C@@H]1O)[C@@]1(C)CC(=O)C(O[C@@H]5O[C@H](CO)[C@@H](O)[C@H](O)[C@H]5O)=C(C)[C@@H]1C[C@H]3OC(=O)[C@H](OC(=O)/C=C(\C)C(C)(C)O)[C@@H]24 [Yadanzioside L] | 10 | 2 | – | – | – |
| – | Not Active | COC(=O)[C@]12OC[C@]34[C@H]([C@@H](O)[C@@H]1O)[C@@]1(C)C(=O)C(O[C@@H]5O[C@H](CO)[C@@H](O)[C@H](O)[C@H]5O)=C[C@@H](C)[C@@H]1C[C@H]3OC(=O)[C@H](OC(=O)/C=C(\C)C(C)C)[C@@H]24 [Yadanzioside N] | 49 | – | – | – | Not Active |
| 18 | – | COC(=O)[C@]12OC[C@]34[C@H]([C@@H](O)[C@@H]1O)[C@@]1(C)CC(=O)C(O[C@@H]5O[C@H](CO)[C@@H](O)[C@H](O)[C@H]5O)=C(C)[C@@H]1C[C@H]3OC(=O)[C@H](OC(=O)/C=C(\C)C(C)C)[C@@H]24 [Yadanzioside P] | 18 | 1 | – | – | – |
| 0.03 | – | Nc1ccn([C@H]2CC[C@@H](CO)O2)c(=O)n1 [ZALCITABINE] | 500 | 16700 | – | – | – |
